Reference: patent publication US10344024B2, “Compounds as ROR gamma modulators” (Glenmark Pharmaceuticals S.A., priority 2015, dated 2019)

Target: T1, GST-tagged ROR gamma ligand binding domain (LBD) (Homo sapiens, UniProt P51449)
T1 construct: purchased Invitrogen
T1 sequence (P51449 269-508 limits assumed): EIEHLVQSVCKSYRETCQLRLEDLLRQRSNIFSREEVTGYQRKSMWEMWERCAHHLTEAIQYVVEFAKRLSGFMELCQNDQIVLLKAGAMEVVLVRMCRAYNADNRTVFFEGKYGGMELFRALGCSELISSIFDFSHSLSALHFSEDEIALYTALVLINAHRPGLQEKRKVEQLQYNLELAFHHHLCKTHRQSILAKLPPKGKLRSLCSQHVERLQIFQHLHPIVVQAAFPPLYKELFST
Assay: TR-FRET assay for ROR gamma (LanthaScreen co-activator peptide recruitment)
Format: biochemical
Details: for inhibition at 1 µM: compound concentration 1 μM; for inhibition at 1 µM / inhibition at 10 µM: TR-FRET ratio 520/495, percent of control; for inhibition at 10 µM: compound concentration 10 μM; for IC50: from dose response curve, nonlinear regression, read-out: IC50 range
From the text: The compounds described herein were screened for ROR gamma modulator activity using the TR-FRET assay (LanthaScreen™ available from Invitrogen of Carlsbad, Calif.) as described in JBC 2011, 286, 26: 22707-10; and Drug Metabolism and Disposition 2009, 37, 10: 2069-78.
Binding of the co-activator peptide, causes an increase in the TR-FRET signal while binding of an antagonist decreases the recruitment of the co-activator peptide, causing a decrease in the TR-FRET signal compared to control with no compound. The assay was performed using a two-step procedure, pre-incubation step with the compound followed by the detection step on addition of the anti-GST tagged terbium (Tb) and fluorescein tagged fluorophores as the acceptor.
Test compounds or reference compounds such as T0901317 (Calbiochem) were dissolved in dimethylsulfoxide (DMSO) to prepare 10.0 mM stock solutions and diluted to the desired concentration. The final concentration of DMSO in the reaction was 4% (v/v). The assay mixture was prepared by mixing 10 nM of the GST-tagged ROR gamma ligand binding domain (LBD) in the assay buffer containing 25 mM HEPES (pH 7.4), 100 mM NaCl, 5 mM DTT and 0.01% BSA with or without the desired concentration of the compound. The reaction was incubated at 22° C. for 1 hour. The pre-incubation step was terminated by addition of the detection mixture containing 300 nM Fluorescein-D22 co-activator peptide and 10 nM lantha screen Tb-anti GST antibody into the reaction mixture.
After shaking for 5 minutes the reaction was further incubated for 1 hour at room temperature and read at 4° C. on an Infinite F500 reader as per the kit instructions (Invitrogen). The inhibition of test compound was calculated based on the TR-FRET ratio of 520/495. The activity was calculated as a percent of control reaction. IC50 values were calculated from dose response curve by nonlinear regression analysis using GraphPad Prism software.

SMILES | inhibition at 1 µM [%] | inhibition at 10 µM [%] | IC50 [µM]
CCC(F)(F)c1ccc(CC(=O)Nc2ccc(-c3nccnc3N3CCN(C(C)=O)CC3)cc2)cc1 [Example 24, N-(4-(3-(4-Acetylpiperazin-1-yl)pyrazin-2-yl)phenyl)-2-(4-(1,1-difluoropropyl)phenyl)acetamide] | 61.6 | 83.6 | –
Cc1ncsc1CCOc1nccnc1-c1ccc(NC(=O)Cc2ccc(C(F)(F)C(C)O)cc2)cc1 (stereo not shown) [Example 92, 2-(4-(1,1-Difluoro-2-hydroxypropyl)phenyl)-N-(4-(3-(2-(4-methylthiazol-5-yl)ethoxy)pyrazin-2-yl)phenyl)acetamide] | 83.5 | 88 | 0.05 to 0.1
CC(O)C(F)(F)c1ccc(CC(=O)Nc2ccc(-c3nccnc3N[C@@H](C)c3ccccc3Cl)c(F)c2)cc1 (stereo partly drawn) [Example 74, N-(4-(3-(((S)-1-(2-Chlorophenyl)ethyl)amino)pyrazin-2-yl)-3-fluorophenyl)-2-(4-(1,1-difluoro-2-hydroxypropyl)phenyl)acetamide] | 79.2 | 89.9 | 0.05 to 0.1
CC(O)C(F)(F)c1ccc(CC(=O)Nc2ccc(-c3nccnc3-c3ccccc3Cl)cc2)cc1 (stereo not shown) [Example 37, N-(4-(3-(2-Chlorophenyl)pyrazin-2-yl)phenyl)-2-(4-(1,1-difluoro-2-hydroxypropyl)phenyl)acetamide] | 71.1 | 73.5 | < 0.05
CC(O)C(F)(F)c1ccc(CC(=O)Nc2ccc(-c3nccnc3N[C@@H](C)c3ccc(Cl)cc3)cc2)cc1 (stereo partly drawn) [Example 72, N-(4-(3-(((S)-1-(4-Chlorophenyl)ethyl)amino)pyrazin-2-yl)phenyl)-2-(4-(1,1-difluoro-2-hydroxypropyl)phenyl)acetamide] | 86.9 | 93.4 | < 0.05
CC(O)C(F)(F)c1ccc(CC(=O)Nc2ccc(-c3nccnc3N3CCN(C(=O)C4CC4)CC3)cc2)cc1 (stereo not shown) [Example 54, N-(4-(3-(4-(Cyclopropanecarbonyl)piperazin-1-yl)pyrazin-2-yl)phenyl)-2-(4-(1,1-difluoro-2-hydroxypropyl)phenyl)acetamide] | 23.1 | 42.4 | –
CCC(F)(F)c1ccc(CC(=O)Nc2ccc(-c3nccnc3O[C@H](C)c3ccccc3Cl)cc2)cc1 [Example 83, (R)-N-(4-(3-(1-(2-Chlorophenyl)ethoxy)pyrazin-2-yl)phenyl)-2-(4-(1,1-difluoropropyl)phenyl)acetamide] | 79.7 | 78.2 | 0.05 to 0.1
CCC(F)(F)c1ccc(CC(=O)Nc2ccc(-c3nccnc3-c3ccc(=O)n(C)c3)cc2)cc1 [Example 25, 2-(4-(1,1-Difluoropropyl)phenyl)-N-(4-(3-(1-methyl-6-oxo-1,6-dihydropyridin-3-yl)pyrazin-2-yl)phenyl)acetamide] | 18.9 | 59.7 | –
CC(O)C(F)(F)c1ccc(CC(=O)Nc2ccc(-c3nccnc3-c3ccc(Cl)cc3)cc2)cc1 (stereo not shown) [Example 2, N-(4-(3-(4-chlorophenyl)pyrazin-2-yl)phenyl)-2-(4-(1,1-difluoro-2-hydroxypropyl)phenyl)acetamide] | 76.1 | 82.7 | < 0.05
CC(O)C(F)(F)c1ccc(CC(=O)Nc2ccc(-c3nccnc3N3CC(OCc4ccccc4)C3)cc2)cc1 (stereo not shown) [Example 94, N-(4-(3-(3-(Benzyloxy)azetidin-1-yl)pyrazin-2-yl)phenyl)-2-(4-(1,1-difluoro-2-hydroxypropyl)phenyl)acetamide] | 15.8 | 45.6 | –
CCC(F)(F)c1ccc(CC(=O)Nc2ccc(-c3nccnc3N[C@@H](C)c3cccc(Cl)c3)cc2)cc1 [Example 64, (S)-N-(4-(3-((1-(3-Chlorophenyl)ethyl)amino)pyrazin-2-yl)phenyl)-2-(4-(1,1-difluoropropyl)phenyl)acetamide] | 76.2 | 84.9 | 0.1 to 0.5
CCC(F)(F)c1ccc(CC(=O)Nc2ccc(-c3nccnc3N3C[C@@H](C)O[C@@H](C)C3)cc2)cc1 [Example 36, 2-(4-(1,1-Difluoropropyl)phenyl)-N-(4-(3-((25,6R)-2,6-dimethylmorpholino)pyrazin-2-yl)phenyl)acetamide] | 2.6 | 8.3 | –
Cc1ccc(-c2nccnc2-c2ccc(NC(=O)Cc3ccc(C(F)(F)C(C)O)cc3)cc2)c(C)c1 (stereo not shown) [Example 51, 2-(4-(1,1-Difluoro-2-hydroxypropyl)phenyl)-N-(4-(3-(2,4-dimethylphenyl)pyrazin-2-yl)phenyl)acetamide] | 73.2 | 81 | < 0.05
CCN1CCN(c2nccnc2-c2ccc(NC(=O)Cc3ccc(C(F)(F)CC)cc3)cc2)CC1 [Example 33, 2-(4-(1,1-Difluoropropyl)phenyl)-N-(4-(3-(4-ethylpiperazin-1-yl)pyrazin-2-yl)phenyl)acetamide] | 27.3 | 75.8 | –
CCC(F)(F)c1ccc(CC(=O)Nc2ccc(-c3nccnc3-c3ccccc3)cc2)cc1 [Example 15, 2-(4-(1,1-Difluoropropyl)phenyl)-N-(4-(3-phenylpyrazin-2-yl)phenyl)acetamide] | 72.2 | 80.6 | 0.1 to 0.5
CCC(F)(F)c1ccc(CC(=O)Nc2ccc(-c3nccnc3N[C@@H](C)c3ccccc3Cl)cc2)cc1 [Example 66, (S)-N-(4-(3-((1-(2-Chlorophenyl)ethyl)amino)pyrazin-2-yl)phenyl)-2-(4-(1,1-difluoropropyl)phenyl)acetamide] | 88.4 | 90.2 | < 0.05
CCC(F)(F)c1ccc(CC(=O)Nc2ccc(-c3nccnc3O[C@@H](C)c3ccccc3)cc2)cc1 [Example 80, (S)-2-(4-(1,1-Difluoropropyl)phenyl)-N-(4-(3-(1-phenylethoxy)pyrazin-2-yl)phenyl)acetamide] | 69.5 | 86.3 | 0.1 to 0.5
CCC(F)(F)c1ccc(CC(=O)Nc2ccc(-c3nccnc3N[C@@H](C)c3ccc(F)cc3C)cc2)cc1 [Example 67, (S)-2-(4-(1,1-Difluoropropyl)phenyl)-N-(4-(3-((1-(4-fluoro-2-methylphenyl)ethyl)amino)pyrazin-2-yl)phenyl)acetamide] | 87.9 | 92.4 | < 0.05
CCC(F)(F)c1ccc(CC(=O)Nc2ccc(-c3nccnc3-c3ccccc3C)cc2)cc1 [Example 31] | 77.7 | 81.7 | < 0.05
CCC(F)(F)c1ccc(CC(=O)Nc2ccc(-c3nccnc3-c3ccc(Cl)cc3)cc2)cc1 [Example 1, N-(4-(3-(4-chlorophenyl)pyrazin-2-yl)phenyl)-2-(4-(1,1-difluoropropyl)phenyl) acetamide] | 80.9 | 81.5 | < 0.05
CCC(F)(F)c1ccc(CC(=O)Nc2ccc(-c3nccnc3NC(CO)c3ccccc3)cc2)cc1 (stereo not shown) [Example 97, 2-(4-(1,1-Difluoropropyl)phenyl)-N-(4-(3-((2-hydroxy-1-phenylethyl)amino)pyrazin-2-yl)phenyl)acetamide] | 22.5 | 46.2 | –
CCC(F)(F)c1ccc(CC(=O)Nc2ccc(-c3nccnc3-c3ccc(F)cc3C)cc2)cc1 [Example 44, 2-(4-(1,1-Difluoropropyl)phenyl)-N-(4-(3-(4-fluoro-2-methylphenyl)pyrazin-2-yl)phenyl)acetamide] | 76.9 | 84.1 | < 0.05
CCC(F)(F)c1ccc(CC(=O)Nc2ccc(-c3cccnc3-c3ccc(Cl)cc3)cc2)cc1 [Example 34, N-(4-(2-(4-Chlorophenyl)pyridin-3-yl)phenyl)-2-(4-(1,1-difluoropropyl)phenyl)acetamide] | 57.9 | 66.8 | –
Cc1noc(C)c1CCOc1nccnc1-c1ccc(NC(=O)Cc2ccc(C(F)(F)C(C)O)cc2)cc1 (stereo not shown) [Example 90, 2-(4-(1,1-Difluoro-2-hydroxypropyl)phenyl)-N-(4-(3-(2-(3,5-dimethylisoxazol-4-yl)ethoxy)pyrazin-2-yl)phenyl)acetamide] | 90.7 | 93.9 | < 0.05
